Measured values published in patent US20240277663A1, “PHARMACEUTICAL KITS AND USES THEREOF FOR TREATING COLORECTAL CANCER” (priority 2023, published 2024).
Read-outs that look alike come from different tables or passages of the source. Marks after values point to notes of the source that are not given here. Values belong to the compound of their own block, whether it stands above or below them.

What was measured:
[1] = tested on: CT26 allograft tumor (MSS subtype colorectal carcinoma); test: CT26 subcutaneous tumor model, HDAC inhibitors with or without RMP1-14; details: for response in the mice on the growth of tumor (individual tumor volumes): compared to vehicle group or to other combinations, ABT-301 100 mg/kg, vorinostat 100 mg/kg, citarinostat 50 mg/kg, RMP1-14 200 μg
Protocol: MC-38 cells (purchased from Kerafast, Inc.), derived from C57BL/6 murine colon adenocarcinoma cells typically classified as microsatellite instable, were maintained in DMEM with 10% fetal bovine serum, 100 U/mL penicillin, 100 μg/mL streptomycin, 10 mM HEPES, and 1× nonessential amino acid. All the cells were maintained in a humidified atmosphere having 5% CO2 at 37° C.
(§1) Female BALB/c mice (BALB/cByJNarl) aged 5-7 weeks (for CT26 subcutaneous tumor model), and female C57BL/6 mice (C57BL/6JNarl) aged 5-7 weeks (for MC-38 subcutaneous tumor model), were housed in standard cages within the animal facility at the Industrial Technology Research Institute (ITRI). A one-week acclimatization period preceded the commencement of the study, with the health of the mice monitored daily. Animals were kept in rooms at 22-26° C. with 40-70% humidity, positive pressure, 60% air recirculation, ventilation rate 15-20 changes per hour, and a controlled light-dark cycle (12-12 hours).
(§2) CT26 cells (2×10^5) were suspended in 100 μl of PBS and subcutaneously inoculated into the right flank of female BALB/c mice. Tumors were measured with calipers, and tumor size was calculated as follows: tumor volume (V)=(L×S^2)/2 (L, longest diameter, mm; S, shortest diameter, mm). Tumor size and body weight of mice were monitored and recorded twice to thrice per week. The antitumor activities of treatments were expressed as percentages of tumor growth inhibition (% TGI), as calculated using the following formula: [1−(final tumor volume−initial tumor volume for treated group)/(final tumor volume−initial tumor volume for vehicle group)]×100. Body weight of each mouse was also compared to that on the first day of treatment (Day 0) and expressed as a percentage of Day 0 value.
When mean tumor volume reached about 80-100 mm^3, treatments were initiated and the day of treatment initiation was designated as Day 0. […] Treatments were administered for indicated period (31 days) or until humane endpoints. Eight or nine mice were used in each group. […] RMP1-14 was prepared with PBS.

[2] = tested on: colorectal cancer tumor; test: Another batch: HDAC inhibitors (PCI-34051, elevenostat, ABT-301) with or without RMP1-14 in tumor-bearing mice; format: in vivo, mouse; details: another batch of experiments, data not shown; compared to vehicle group or to other combinations
[3] = target: T1, HDAC11 (Homo sapiens, UniProt Q96DB2); test: HDAC enzymatic activity assay (fluorogenic, Reaction Biology)
T1 sequence (Q96DB2 1-347): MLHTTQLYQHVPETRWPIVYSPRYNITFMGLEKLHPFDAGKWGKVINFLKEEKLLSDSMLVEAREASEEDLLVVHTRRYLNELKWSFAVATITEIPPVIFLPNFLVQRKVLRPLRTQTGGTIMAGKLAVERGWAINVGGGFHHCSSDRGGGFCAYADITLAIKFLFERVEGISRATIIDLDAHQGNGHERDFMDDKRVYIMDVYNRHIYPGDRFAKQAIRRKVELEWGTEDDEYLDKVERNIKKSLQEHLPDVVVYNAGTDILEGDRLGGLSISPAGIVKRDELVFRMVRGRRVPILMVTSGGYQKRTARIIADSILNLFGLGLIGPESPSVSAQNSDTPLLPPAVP

[4] = target: HDAC9 (Homo sapiens, UniProt Q9UKV0); test: as above
Chain of HDAC9 (Q9UKV0 whole entry): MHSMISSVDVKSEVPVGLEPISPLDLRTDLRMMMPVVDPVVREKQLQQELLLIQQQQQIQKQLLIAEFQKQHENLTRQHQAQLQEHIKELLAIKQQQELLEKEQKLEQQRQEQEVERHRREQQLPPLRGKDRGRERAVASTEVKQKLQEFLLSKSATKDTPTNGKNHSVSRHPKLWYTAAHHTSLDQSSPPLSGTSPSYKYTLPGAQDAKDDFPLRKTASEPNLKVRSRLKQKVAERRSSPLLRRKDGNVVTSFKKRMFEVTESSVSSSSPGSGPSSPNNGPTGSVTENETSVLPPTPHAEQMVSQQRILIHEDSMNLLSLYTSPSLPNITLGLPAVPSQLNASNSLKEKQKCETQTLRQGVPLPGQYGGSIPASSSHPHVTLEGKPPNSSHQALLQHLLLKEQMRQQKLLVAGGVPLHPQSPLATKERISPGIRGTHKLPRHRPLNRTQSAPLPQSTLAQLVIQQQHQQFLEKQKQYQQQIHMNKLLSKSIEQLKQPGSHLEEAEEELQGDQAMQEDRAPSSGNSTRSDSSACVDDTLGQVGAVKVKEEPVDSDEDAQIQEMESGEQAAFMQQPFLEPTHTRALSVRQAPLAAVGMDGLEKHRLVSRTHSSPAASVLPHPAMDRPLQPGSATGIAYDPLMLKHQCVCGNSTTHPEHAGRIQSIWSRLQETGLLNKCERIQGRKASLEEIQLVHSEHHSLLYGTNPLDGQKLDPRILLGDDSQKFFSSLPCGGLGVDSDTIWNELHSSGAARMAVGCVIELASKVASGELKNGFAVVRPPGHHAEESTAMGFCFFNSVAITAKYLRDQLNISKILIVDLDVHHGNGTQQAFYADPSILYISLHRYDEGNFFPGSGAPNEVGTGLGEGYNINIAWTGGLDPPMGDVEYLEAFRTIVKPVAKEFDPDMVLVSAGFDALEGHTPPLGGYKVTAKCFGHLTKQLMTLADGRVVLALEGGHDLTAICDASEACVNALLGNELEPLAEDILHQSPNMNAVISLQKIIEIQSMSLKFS

[5] = target: T2, HDAC10 (Homo sapiens, UniProt Q969S8); test: as above
T2 sequence (Q969S8 1-669): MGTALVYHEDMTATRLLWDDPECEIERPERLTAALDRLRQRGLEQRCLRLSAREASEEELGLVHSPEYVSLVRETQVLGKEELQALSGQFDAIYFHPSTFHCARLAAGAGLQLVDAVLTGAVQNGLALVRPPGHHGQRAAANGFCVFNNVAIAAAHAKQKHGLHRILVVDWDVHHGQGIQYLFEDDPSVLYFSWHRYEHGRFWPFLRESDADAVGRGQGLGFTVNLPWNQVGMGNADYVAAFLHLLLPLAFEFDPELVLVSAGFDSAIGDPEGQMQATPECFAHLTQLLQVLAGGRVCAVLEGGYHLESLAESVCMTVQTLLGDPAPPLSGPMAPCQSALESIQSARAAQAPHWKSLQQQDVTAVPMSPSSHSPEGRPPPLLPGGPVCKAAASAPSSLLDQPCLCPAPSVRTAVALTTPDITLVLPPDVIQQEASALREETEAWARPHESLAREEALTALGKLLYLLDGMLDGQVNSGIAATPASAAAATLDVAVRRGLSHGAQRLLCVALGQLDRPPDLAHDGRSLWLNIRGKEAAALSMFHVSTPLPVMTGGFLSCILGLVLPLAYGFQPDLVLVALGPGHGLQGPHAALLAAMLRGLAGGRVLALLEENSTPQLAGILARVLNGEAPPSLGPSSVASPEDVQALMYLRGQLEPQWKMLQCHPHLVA

[6] = target: T3, HDAC7 (Homo sapiens, UniProt Q8WUI4); test: as above
T3 sequence (Q8WUI4 1-952): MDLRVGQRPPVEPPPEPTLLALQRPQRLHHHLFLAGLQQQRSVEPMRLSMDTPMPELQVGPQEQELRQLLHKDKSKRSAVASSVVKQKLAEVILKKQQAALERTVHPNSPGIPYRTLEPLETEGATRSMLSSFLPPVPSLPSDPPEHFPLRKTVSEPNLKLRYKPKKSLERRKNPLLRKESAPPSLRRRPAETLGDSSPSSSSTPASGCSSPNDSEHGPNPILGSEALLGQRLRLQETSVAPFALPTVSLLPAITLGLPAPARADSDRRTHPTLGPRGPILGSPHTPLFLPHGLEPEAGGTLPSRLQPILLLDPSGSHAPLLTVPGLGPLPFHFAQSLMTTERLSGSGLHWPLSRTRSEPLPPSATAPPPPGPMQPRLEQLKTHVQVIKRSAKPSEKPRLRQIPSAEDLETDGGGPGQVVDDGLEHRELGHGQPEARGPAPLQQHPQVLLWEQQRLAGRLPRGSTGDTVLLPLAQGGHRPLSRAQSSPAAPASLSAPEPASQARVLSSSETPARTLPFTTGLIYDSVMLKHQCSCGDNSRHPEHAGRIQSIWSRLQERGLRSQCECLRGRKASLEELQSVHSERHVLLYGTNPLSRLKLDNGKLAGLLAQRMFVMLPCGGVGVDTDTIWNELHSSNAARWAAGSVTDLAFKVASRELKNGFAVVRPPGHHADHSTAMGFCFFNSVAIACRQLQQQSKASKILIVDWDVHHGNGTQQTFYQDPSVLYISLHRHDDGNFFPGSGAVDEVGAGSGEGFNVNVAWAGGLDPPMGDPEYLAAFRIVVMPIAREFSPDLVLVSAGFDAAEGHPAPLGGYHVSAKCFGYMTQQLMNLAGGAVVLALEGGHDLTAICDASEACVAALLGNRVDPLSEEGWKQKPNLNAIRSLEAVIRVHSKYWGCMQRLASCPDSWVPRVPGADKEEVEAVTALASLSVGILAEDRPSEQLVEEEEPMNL

[7] = tested on: CT26 allograft tumor (MSS subtype colorectal carcinoma)
Protocol: As described herein, tumor responses were evaluated using Response Evaluation Criteria in Solid Tumors (RECIST) criteria. Complete response (CR) was defined as complete disappearance of measurable or evaluable tumor lesions; partial response (PR) was defined as reduction of the size of measurable tumor lesions by at least 30% (≥30%) compared to the original tumor size; stable disease (SD) was defined as reduction of the size of measurable tumor lesions by less than 30% (<30%) or enlargement of the size of measurable tumor lesions by less than 20% (<20%) compared to the original tumor size; and progressive disease (PD) was defined as growth of the tumor by more than 30% (>30%) in the tumor volume compared to the original tumor size or development of new lesions.
All the cells were maintained in a humidified atmosphere having 5% CO2 at 37° C.
as §1, §2
The administration of treatments commenced five days following the inoculation of CT26 cells, with the day of treatment initiation designated as Day 0. When mean tumor volume reached 50-100 mm^3, the mice were assigned into four groups through S-type grouping according to tumor size. […] Eight mice were used in each group. Treatments were administered for 43 days. […] Avelumab was prepared with PBS.

[8] = tested on: MC-38 allograft tumor (MSI-H subtype colorectal carcinoma)
Protocol: As described herein, tumor responses were evaluated using Response Evaluation Criteria in Solid Tumors (RECIST) criteria. Complete response (CR) was defined as complete disappearance of measurable or evaluable tumor lesions; partial response (PR) was defined as reduction of the size of measurable tumor lesions by at least 30% (≥30%) compared to the original tumor size; stable disease (SD) was defined as reduction of the size of measurable tumor lesions by less than 30% (<30%) or enlargement of the size of measurable tumor lesions by less than 20% (<20%) compared to the original tumor size; and progressive disease (PD) was defined as growth of the tumor by more than 30% (>30%) in the tumor volume compared to the original tumor size or development of new lesions. […]
Female BALB/c mice (BALB/cByJNarl) aged 5-7 weeks (for CT26 subcutaneous tumor model), and female C57BL/6 mice (C57BL/6JNarl) aged 5-7 weeks (for MC-38 subcutaneous tumor model), were housed in standard cages within the animal facility at the Industrial Technology Research Institute (ITRI). A one-week acclimatization period preceded the commencement of the study, with the health of the mice monitored daily. […]
MC-38 cells (2×10^5) were suspended in 100 μl of PBS and subcutaneously inoculated into the right flank of female C57BL/6 mice. Tumors were measured with calipers, and tumor size was calculated as follows: tumor volume (V)=(LxS^2)/2 (L, longest diameter, mm; S, shortest diameter, mm). Tumor size and body weight of mice were monitored and recorded twice to thrice per week. The antitumor activities of treatments were expressed as percentages of tumor growth inhibition (% TGI), as calculated using the following formula: [1−(final tumor volume−initial tumor volume for treated group)/(final tumor volume−initial tumor volume for vehicle group)]×100. Body weight of each mouse was also compared to that on the first day of treatment (Day 0) and expressed as a percentage of Day 0 value. […]

[9] = tested on: CT26 allograft tumor (MSS subtype colorectal carcinoma); test: CT26 subcutaneous tumor model, multiple doses of ABT-301 with or without avelumab; format: in vivo, mouse
Protocol: Treatments were administered for indicated period (24 days) or until humane endpoints. Ten mice were used in each group. […] Avelumab was prepared with PBS.

[10] = Day 28 after treatments, ABT-301 100 mg/kg PO, avelumab 100 μg IP, means ± SEM

Compound: O=C(CCCCCCNC(=O)c1cnc(N(c2ccccc2)c2ccccc2Cl)nc1)NO [Citarinostat]
TGI (tumor growth inhibition) ([1]; Day 22 after treatments, ABT-301 100 mg/kg PO, vorinostat 100 mg/kg PO, citarinostat 50 mg/kg IP, RMP1-14 200 μg IP): 38%
response in the mice on the growth of tumor (individual tumor volumes) [1]: did not elicit a visible response

Compound: COc1ccc(Cn2ccc3ccc(C(=O)NO)cc32)cc1 [PCI-34051]
response in the mice on the growth of tumor [2]: did not elicit a visible response

IC50 [3]: > 3 µM
IC50 [4]: > 3 µM
IC50 [5]: > 3 µM
IC50 [6]: > 3 µM
Compound: Nc1cc(F)ccc1NC(=O)c1ccc(CNC(=O)/C=C/c2cccnc2)cc1 [Tucidinostat, reference compound]

Compound: O=C(CCCCCCC(=O)Nc1ccccc1)NO [Vorinostat]
response in the mice on the growth of tumor (individual tumor volumes) [1]: did not elicit a visible response

Compound: COc1ccccc1NC(=O)NCc1ccc(C(=O)NO)cc1 [elevenostat]
response in the mice on the growth of tumor [2]: did not elicit a visible response

Compound: Avelumab: an anti-PD-L1 antibody [reference compound]
complete response (CR) rate ([7]; CT26-bearing BALB/c mice, n=8/group, ABT-301 100 mg/kg PO QD, avelumab 100 μg IP BIW): 1/8
Median survival ([7]; CT26 allograft tumor mice, over the entire study, ABT-301 100 mg/kg PO QD, avelumab 100 μg IP BIW): 28 days
TGI (tumor growth inhibition) [7, 10]: 58.51 ± 14.14%
Tumor size [7, 10]: 559.63 ± 156.94 mm^3
Tumor size ([8]; Day 25 after treatments, ABT-301 100 mg/kg PO, avelumab 200 μg IP, RMP1-14 200 μg IP, means ± SEM): 529.91 ± 329.24 mm^3
complete response (CR) rate ([8]; MC-38-bearing C57BL/6 mice, n=8/group, ABT-301 100 mg/kg PO QD, avelumab 200 μg IP BIW, RMP1-14 200 μg IP BIW): 4/8
Median survival ([8]; MC-38 allograft tumor mice, over the entire study, ABT-301 100 mg/kg PO QD, avelumab or RMP1-14 200 μg IP BIW): 68 days
Tumor size ([9]; Day 24 after treatments, avelumab 200 μg alone, means ± SEM): 31.79 ± 26.66** mm^3
number of mice exhibiting complete response (CR) ([9]; avelumab 200 μg IP BIW alone, out of 10 mice): 7
